Reference: ChEMBL document CHEMBL5360649, “Potential Broad-Spectrum Antimicrobial, Wound Healing, and Disinfectant Cationic Peptide Crafted from Snake Venom” (J Med Chem, 2023)
The source made the active and inactive calls.

Key:
Lipopolysaccharide (LPS) = test: Displacement of BODIPY-TR-cadaverin from Escherichia coli O111:B4 Lipopolysaccharide assessed as increase in binding factor at 10 to 40 uM preincubated for 15 mins followed by BODIPY-TR-cadaverin addition and measured after 15 mins by fluorescence based analysis; conditions: dose 10-40 µM, time 30.0 min
[1] = Stability in human serum assessed as intact peptide remaining at 1 mM measured after 12 hrs by HPLC analysis; type: ADME, cell-free; conditions: read-out: Stability
Pseudomonas aeruginosa [2] = test: Antibacterial activity against patient-derived Pseudomonas aeruginosa assessed as inhibition of bacterial growth at 25 to 100 uM incubated overnight by spotting assay; type: functional, organism-based; conditions: dose 25-100 µM
[3] = Cytotoxicity against human WI-38 cells assessed as cell viability at 12.5 uM incubated for 24 hrs by MTT assay relative to control; type: toxicity, cell-based; conditions: read-out: Activity
[4] = Cytotoxicity against human A549 cells assessed as cell viability at 12.5 uM incubated for 24 hrs by MTT assay relative to control; type: toxicity, cell-based; conditions: read-out: Activity
Erythrocyte = test: Cytotoxicity against human RBC assessed as less damage to cells at 12.5 to 25 uM by SEM analysis; type: toxicity, cell-based; conditions: dose 12.5-25 µM
Staphylococcus aureus [5] = test: Antibacterial activity against methicillin resistant Staphylococcus aureus assessed as inhibition of bacterial growth incubated for 0.5 to 8.5 hrs by microtiter plate reader analysis; type: functional, organism-based; conditions: dose 1.25-40 µM, time 0.5-8.5 hrs
Klebsiella pneumoniae [6] = test: Antibacterial activity against carbapenem resistance Klebsiella pneumoniae ATCC BAA-1705 assessed as inhibition of bacterial growth incubated for 0.5 to 8.5 hrs by microtiter plate reader analysis; type: functional, organism-based; conditions: dose 1.25-40 µM, time 0.5-8.5 hrs
Escherichia coli [7] = test: Antibacterial activity against Escherichia coli assessed as inhibition of bacterial growth at 1.25 to 40 uM by microtiter plate reader analysis; type: functional, organism-based; conditions: dose 1.25-40 µM, time 0.5-8.5 hrs, TDE = time-dependent effect
Escherichia coli [8] = test: Antibacterial activity against Escherichia coli assessed as inhibition of bacterial growth at 1.25 to 40 uM incubated for 8 hrs by microtiter plate reader analysis; type: functional, organism-based; conditions: dose 1.25-40 µM
Staphylococcus aureus [9] = test: Antibacterial activity against methicillin resistant Staphylococcus aureus assessed as inhibition of bacterial growth at 1.25 to 40 uM incubated for 8 hrs by microtiter plate reader analysis; type: functional, organism-based; conditions: dose 1.25-40 µM
Pseudomonas aeruginosa [10] = test: Antibacterial activity against Pseudomonas aeruginosa assessed as inhibition of bacterial growth at 1.25 to 40 uM incubated for 8 hrs by microtiter plate reader analysis; type: functional, organism-based; conditions: dose 1.25-40 µM
Staphylococcus aureus [11] = test: Induction of morphological changes in methicillin-resistant Staphylococcus aureus at MIC concentration incubated for 6 hrs by AFM analysis; type: functional, organism-based
Escherichia coli [12] = test: Induction of morphological changes in Escherichia coli assessed as cellular destruction at MIC concentration incubated for 6 hrs by AFM analysis; type: functional, organism-based
Pseudomonas aeruginosa [13] = test: Induction of morphological changes in Pseudomonas aeruginosa at MIC concentration incubated for 6 hrs by SEM analysis; type: functional, organism-based
Staphylococcus aureus [14] = test: Induction of morphological changes in methicillin-resistant Staphylococcus aureus at MIC concentration incubated for 60 mins by SEM analysis; type: functional, organism-based
Klebsiella pneumoniae [15] = test: Induction of morphological changes in carbapenem resistant Klebsiella pneumoniae ATCC BAA-1705 at MIC concentration incubated for 60 mins by SEM analysis; type: functional, organism-based
Pseudomonas aeruginosa [16] = test: Induction of morphological changes in Pseudomonas aeruginosa assessed as membrane damage at MIC concentration incubated for 60 mins by SEM analysis; type: functional, organism-based
Escherichia coli [17] = test: Induction of morphological changes in Escherichia coli assessed as membrane perturbation at MIC concentration incubated for 60 mins by SEM analysis; type: functional, organism-based
Klebsiella pneumoniae [18] = test: Induction of morphological changes in carbapenem resistant Klebsiella pneumoniae ATCC BAA-1705 assessed as inhibition of cell division by measuring filamented cells at MIC concentration incubated for 60 mins by SEM analysis; type: functional, organism-based
Cell membrane [19] = test: Induction of cytoplasmic membrane depolarization in Pseudomonas aeruginosa assessed as increase in fluorescence intensity at 0.5 to 1 times of MIC by DiSC3-5 dye based fluorescence method; type: subcellular
Cell membrane [20] = test: Induction of outer membrane permeabilization in Escherichia coli at 0.5 to 1 times of MIC incubated for 5 to 20 mins by fluorescence based NPN uptake assay; type: subcellular; conditions: time 5-20 min
Cell membrane [21] = test: Induction of outer membrane permeabilization in Pseudomonas aeruginosa at 0.5 to 1 times of MIC incubated for 5 to 20 mins by fluorescence based NPN uptake assay; type: subcellular; conditions: time 5-20 min
Pseudomonas aeruginosa [22] = test: Antibacterial activity against Pseudomonas aeruginosa assessed as cell division block by measuring bacterial filamentation at 0.5 to 1 times of MIC incubated for 30 mins by SYTO9/PI staining based fluorescence microscopic analysis; type: functional, organism-based
Pseudomonas aeruginosa [23] = test: Antibacterial activity against Pseudomonas aeruginosa assessed as cell division block by measuring cellular elongation at 0.5 to 1 times of MIC incubated for 30 mins by SYTO9/PI staining based fluorescence microscopic analysis; type: functional, organism-based
Klebsiella pneumoniae [24] = test: Antibiofilm activity against Klebsiella pneumoniae assessed as biofilm eradication at 1 times of MIC incubated for 24 hrs by CV staining based analysis relative to control; type: functional
Klebsiella pneumoniae [25] = test: Antibiofilm activity against Klebsiella pneumoniae assessed as clearance of preformed biofilm at 1 times of MIC incubated for 24 hrs by CV staining based analysis relative to control; type: functional
Pseudomonas aeruginosa [26] = test: Antibiofilm activity against Pseudomonas aeruginosa assessed as clearance of preformed biofilm at 1 times of MIC incubated for 24 hrs by CV staining based analysis relative to control; type: functional
Staphylococcus aureus [27] = test: Antibiofilm activity against methicillin-resistant Staphylococcus aureus in the presence of Na+; type: functional, organism-based
Staphylococcus aureus [28] = test: Antibiofilm activity against methicillin-resistant Staphylococcus aureus in the presence of Cl-; type: functional, organism-based
Klebsiella pneumoniae [29] = test: Antibiofilm activity against Klebsiella pneumoniae in the presence of Na+; type: functional, organism-based
Staphylococcus aureus [30] = test: Antibiofilm activity in methicillin-resistant Staphylococcus aureus assessed as biofilm disintegration at 0.5 to 1 times of MIC incubated for 24 hrs by Congo red dye based fluorescence analysis; type: functional, organism-based
Klebsiella pneumoniae [31] = test: Antibiofilm activity against Klebsiella pneumoniae assessed as increase in dead cell proportion at 0.5 times of MIC incubated overnight by SYTO9/PI staining based fluorescence analysis; type: functional, organism-based
Staphylococcus aureus [32] = test: Antibiofilm activity against preformed biofilm in methicillin-resistant Staphylococcus aureus assessed as decrease in metabolic activity at MIC incubated overnight by MTT assay; type: functional, organism-based
Staphylococcus aureus [33] = test: Antibiofilm activity against preformed biofilm in methicillin-resistant Staphylococcus aureus assessed as decrease in cell viability at MIC incubated overnight by MTT assay relative to control; type: functional
Rattus norvegicus [34] = species: Rattus norvegicus; test: Induction of wound healing in surgically-induced Albino Wistar rat wound model inoculated with methicillin-resistant Staphylococcus aureus assessed as dense epithelial-tissue layers at 10 uM measured after 11 days by H&E staining based analysis; type: functional; conditions: time 11.0 day
Rattus norvegicus [35] = species: Rattus norvegicus; test: Induction of wound healing in surgically-induced Albino Wistar rat wound model assessed as reduction in inflammatory cell infiltration at 10 uM measured after 11 days by H&E staining based analysis; type: functional; conditions: time 11.0 day
Rattus norvegicus [36] = species: Rattus norvegicus; test: Induction of wound healing in surgically-induced Albino Wistar rat wound model inoculated with methicillin-resistant Staphylococcus aureus assessed as hair follicle formation at 10 uM measured after 11 days by H&E staining based analysis; type: functional; conditions: time 11.0 day
Rattus norvegicus [37] = species: Rattus norvegicus; test: Induction of wound healing in surgically-induced Albino Wistar rat wound model assessed as reduction in inflammatory activity at 10 uM measured after 11 days by H&E staining based analysis; type: functional; conditions: time 11.0 day

H-FLPIIKWVKKFFWRWR-OH
Non-Toxic: Activity (Erythrocyte)
54.5%: remaining at 12 h, 1000 µM [1]
91.5%: viability at 24 h, 12.5 µM [3]
active: Activity (Lipopolysaccharide (LPS)) | Activity (Pseudomonas aeruginosa [2]) | Activity (Staphylococcus aureus [5]) Dose-Dependent Effect | Activity (Klebsiella pneumoniae [6]) Dose-Dependent Effect | Activity (Escherichia coli [7]) Tde | Activity (Escherichia coli [8]) | Activity (Staphylococcus aureus [9]) | Activity (Pseudomonas aeruginosa [10]) | Activity (Staphylococcus aureus [11]) | Activity (Escherichia coli [12]) | Activity (Pseudomonas aeruginosa [13]) | Activity (Staphylococcus aureus [14]) | Activity (Klebsiella pneumoniae [15]) | Activity (Pseudomonas aeruginosa [16]) | Activity (Escherichia coli [17]) | Activity (Klebsiella pneumoniae [18]) | Activity (Cell membrane [19]) | Activity (Cell membrane [20]) | Activity (Cell membrane [21]) | Activity (Pseudomonas aeruginosa [22]) | Activity (Pseudomonas aeruginosa [23]) | Activity (Staphylococcus aureus [27]) | Activity (Staphylococcus aureus [28]) | Activity (Klebsiella pneumoniae [29]) | Activity (Staphylococcus aureus [30]) | Activity (Staphylococcus aureus [32]) | Activity (Rattus norvegicus [34]) | Activity (Rattus norvegicus [35]) | Activity (Rattus norvegicus [36]) | Activity (Rattus norvegicus [37])
~70%: Activity (Klebsiella pneumoniae [25])
~56%: Activity (Pseudomonas aeruginosa [26])
inactive: Activity (Klebsiella pneumoniae [31])
33.89%: Activity (Staphylococcus aureus [33])
<=78.28%: Activity (Klebsiella pneumoniae [24])
74.3%: viability at 24 h, 12.5 µM [4]
